Measured values taken from patent publication US20250018014A1, “METHOD FOR TREATING AND/OR PREVENTING REGNASE-1-RELATED DISEASE” (OSAKA UNIVERSITY, priority 2018, published 2025).
Read-outs that look alike come from different tables or passages of the source. Residues, ends and D or L forms follow the SMILES beside them.

Key:
[1] = biological target: T1, FL_Reg1 (full-length human Regnase-1) phosphorylation by IKKβ (Homo sapiens, UniProt Q5D1E8); assay: Regnase-1 phosphorylation inhibition by compounds (AlphaScreen), IKKβ, full-length Regnase-1; format: biochemical
T1 construct: made in house; host or cells: Expi293 cells
T1 sequence (Q5D1E8 1-599): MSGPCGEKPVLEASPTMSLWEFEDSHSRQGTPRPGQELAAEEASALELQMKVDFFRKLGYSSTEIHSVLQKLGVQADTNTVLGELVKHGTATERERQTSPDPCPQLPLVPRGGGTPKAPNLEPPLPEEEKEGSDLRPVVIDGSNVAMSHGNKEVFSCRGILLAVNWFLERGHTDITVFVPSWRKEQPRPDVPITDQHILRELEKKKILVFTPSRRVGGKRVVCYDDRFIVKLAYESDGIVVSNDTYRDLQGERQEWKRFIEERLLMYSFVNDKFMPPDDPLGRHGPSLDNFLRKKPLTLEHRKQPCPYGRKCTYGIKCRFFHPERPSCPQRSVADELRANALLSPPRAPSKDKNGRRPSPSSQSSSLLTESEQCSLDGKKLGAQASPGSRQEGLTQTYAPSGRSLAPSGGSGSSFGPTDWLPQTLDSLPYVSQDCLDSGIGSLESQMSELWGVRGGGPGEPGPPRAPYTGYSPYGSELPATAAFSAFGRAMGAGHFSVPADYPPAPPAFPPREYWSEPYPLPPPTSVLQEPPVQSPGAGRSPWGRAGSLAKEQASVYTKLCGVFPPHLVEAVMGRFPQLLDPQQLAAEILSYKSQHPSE
From the text: (§1) The full-length sequence of human Regnase-1 (UniProt ID: Q5D1E8) was used to prepare a construct having a FLAG tag on the N-terminal side and a recognition sequence for biotin ligase BirA on the C-terminal side (FL_Reg1) as a target protein. The above-mentioned Regnase-1 was expressed in mammalian Expi293 cells, purified with FLAG M2 agarose, and isolated by gel filtration chromatography. When biotinylation was required, methods from nonpatent documents (BMC biotechnology, 2008,8,41; and Protein Science, 1999,8,921-929) were used. […]
(§2) Using Kinase assay buffer III (manufactured by SignalChem) supplemented with 2 mM DTT, 100 μM sodium vanadate, and 2 mM manganese chloride, kinase (IKKβ (manufactured by SignalChem) or TBK1 (manufactured by SignalChem)) and Regnase-1 were reacted in the presence of 10 μM ATP at room temperature for 2 hours to perform a phosphorylation reaction.
(§3) Phosphorylated Regnase-1 was detected by the AlphaScreen system. After each of the above-mentioned phosphorylated Regnase-1 antibodies was added and reacted at room temperature for one hour, anti-FLAG AlphaLISA Acceptor Beads (manufactured by PerkinElmer) and Protein A AlphaScreen Donor Beads (manufactured by PerkinElmer) were added, and EnVision (manufactured by PerkinElmer) was used to measure the excited luminescence. As a result, phosphorylated Regnase-1 produced by the phosphorylation reaction by kinase was specifically detected, and signals were confirmed to be enhanced in a manner dependent on Regnase-1 and kinase concentrations (FIG. 24).
(§4) After mixing 2 nM of the above-mentioned Regnase-1 and the compound, phosphorylated Regnase-1 produced by the phosphorylation reaction was detected by the AlphaScreen system. As the results, the inhibition rate was calculated from the signals obtained when adding the compound at each concentration, by defining the signal obtained with Regnase-1 alone to be 100% inhibition rate, and the signal obtained when the same amount of solvent (DMSO) is added in place of the compound as 0% inhibition rate. The 50% inhibition concentration (μM) was calculated from the obtained dose response curve (Table 11).

[2] = biological target: T2, binding between TBK1 and full-length Regnase-1 (FL_Reg1) (Homo sapiens, UniProt Q5D1E8); assay: Inhibition of kinase-Regnase-1 binding by the compounds (AlphaScreen), TBK1
T2 construct: made in house; host or cells: Expi293 cells
T2 sequence (Q5D1E8 1-599): T1 sequence (Q5D1E8 1-599)
Experimental: (§5) As a target protein, a construct having a FLAG tag on the N-terminal side and a recognition sequence for biotin ligase BirA on the C-terminal side of the full-length sequence of human Regnase-1 (UniProt ID: Q5D1E8) was prepared (FL_Reg1). The above-mentioned Regnase-1 was expressed in mammalian Expi293 cells, purified with FLAG M2 agarose, and isolated by gel filtration chromatography. When biotinylation was required, methods from nonpatent documents (BMC biotechnology, 2008,8,41; and Protein Science, 1999,8,921-929) were used.
(§6) After mixing 2.5 nM of the above-mentioned Regnase-1 and the compound, 2.5 nM of IKKβ or TBK1 was added and reacted at room temperature for two hours. Then, Anti FLAG AlphaLISA Acceptor Beads (manufactured by PerkinElmer) and Glutathione-coated AlphaScreen Donor Beads (manufactured by PerkinElmer) were added, and excited luminescence was measured using En Vision (manufactured by PerkinElmer). As the results, the inhibition rate from the signals obtained when adding the compound at each concentration were calculated, by defining the signal obtained with Regnase-1 alone to be 100% inhibition rate, and the signal obtained when the same amount of solvent (DMSO) is added in place of the compound as 0% inhibition rate. The 50% inhibition concentration (μM) was calculated from the obtained dose response curve (Table 12).

[3] = biological target: T3, binding between IKKβ and full-length Regnase-1 (FL_Reg1) (Homo sapiens, UniProt Q5D1E8); assay: Inhibition of kinase-Regnase-1 binding by the compounds (AlphaScreen), IKKβ
T3 construct: made in house; host or cells: Expi293 cells
T3 sequence (Q5D1E8 1-599): T1 sequence (Q5D1E8 1-599)
Experimental: as §5, §6

[4] = biological target: T4, FL_Reg1 (full-length human Regnase-1) phosphorylation by TBK1 (Homo sapiens, UniProt Q5D1E8); assay: Regnase-1 phosphorylation inhibition by compounds (AlphaScreen), TBK1, full-length Regnase-1; format: biochemical
T4 construct: made in house; host or cells: Expi293 cells
T4 sequence (Q5D1E8 1-599): T1 sequence (Q5D1E8 1-599)
From the text: as §1, §2, §3, §4

[5] = Table 11, 2 nM Regnase-1, AlphaScreen, read-out: 50% inhibition concentration, Regnase-1 phosphorylation, FL_Reg1, IKKβ
[6] = Table 12, 2.5 nM Regnase-1, 2.5 nM TBK1, AlphaScreen, read-out: 50% inhibition concentration, binding between Regnase-1 and TBK1, FL_Reg1
[7] = Table 12, 2.5 nM Regnase-1, 2.5 nM IKKβ, AlphaScreen, read-out: 50% inhibition concentration, binding between Regnase-1 and IKKβ, FL_Reg1
[8] = Table 11, 2 nM Regnase-1, AlphaScreen, read-out: 50% inhibition concentration, Regnase-1 phosphorylation, FL_Reg1, TBK1
[9] = Table 14, phosphorylation by IKKβ, read-out: Phosphorylation inhibition FL_Reg1, 50% inhibition concentration (IKKβ)
[10] = Table 13, binding between TBK1 and Regnase-1, read-out: Binding inhibition FL_Reg1, 50% inhibition concentration (TBK1)
[11] = Table 14, binding between IKKβ and Regnase-1, read-out: Binding inhibition FL_Reg1, 50% inhibition concentration (IKKβ)
[12] = Table 13, phosphorylation by TBK1, read-out: Phosphorylation inhibition FL_Reg1, 50% inhibition concentration (TBK1)

| SMILES | IC50 [1, 5] [µM] | IC50 [2, 6] [µM] | IC50 [3, 7] [µM] | IC50 [4, 8] [µM] | IC50 [1, 9] [µM] | IC50 [2, 10] [µM] | IC50 [3, 11] [µM] | IC50 [4, 12] [µM] |
| --- | --- | --- | --- | --- | --- | --- | --- | --- |
| CC[C@H](C)[C@@H]1NC(=O)[C@H](Cc2ccc(O)cc2)NC(=O)[C@H](C)N(C)C(=O)C[C@@H](C(=O)N2CCCC2)NC(=O)[C@H](CC(C)C)NC(=O)[C@H](CC(=O)O)NC(=O)CNC(=O)[C@H](Cc2ccccc2)NC(=O)[C@H](Cc2ccccc2)NC(=O)[C@H](CC(=O)O)NC(=O)[C@H](Cc2c[nH]c3ccccc23)NC1=O [PP4] (HELM PEPTIDE1{[meA].Y.I.W.D.F.F.G.D.L.D.[C1CCN([*:1])C1]}$PEPTIDE1,PEPTIDE1,1:R1-11:R3$$$V2.0) | 19.5 | 24.4 | 47.7 | 61.9 |  |  |  |  |
| CC[C@H](C)[C@@H]1NC(=O)[C@H](CCCNC(=N)N)NC(=O)[C@H](Cc2ccc(O)cc2)NC(=O)[C@H](Cc2c[nH]c3ccccc23)NC(=O)[C@H](CO)NC(=O)[C@H](CC(N)=O)NC(=O)[C@H](C)N(C)C(=O)C[C@@H](C(=O)N2CCCC2)NC(=O)[C@H](CC(C)C)NC(=O)CNC(=O)[C@H](Cc2c[nH]c3ccccc23)NC1=O [PP22] (HELM PEPTIDE1{[meA].N.S.W.Y.R.I.W.G.L.D.[C1CCN([*:1])C1]}$PEPTIDE1,PEPTIDE1,1:R1-11:R3$$$V2.0) |  |  |  |  | 15 | 11.4 | 26.8 | 24.3 |
| CC[C@H](C)[C@@H]1NC(=O)[C@H](Cc2c[nH]c3ccccc23)NC(=O)[C@H](CCC(N)=O)NC(=O)[C@H](Cc2ccc(O)cc2)NC(=O)[C@H](C(C)C)NC(=O)[C@H](C)NC(=O)[C@H](Cc2ccc(O)cc2)NC(=O)[C@H](CCCNC(=N)N)NC(=O)[C@H](C)N(C)C(=O)C[C@@H](C(=O)N2CCCC2)NC(=O)[C@@H]2CCCN2C(=O)[C@H](Cc2ccc(O)cc2)NC1=O [PP12] (HELM PEPTIDE1{[meA].R.Y.A.V.Y.Q.W.I.Y.P.D.[C1CCN([*:1])C1]}$PEPTIDE1,PEPTIDE1,1:R1-12:R3$$$V2.0) |  |  |  |  | 6.8 | > 62.1 | > 62.1 | 12.7 |
| CC[C@H](C)[C@@H]1NC(=O)[C@H](CC(=O)O)NC(=O)[C@H](C)N(C)C(=O)C[C@@H](C(=O)N2CCCC2)NC(=O)[C@H](Cc2ccc(O)cc2)NC(=O)[C@H](CC(=O)O)NC(=O)[C@H](Cc2c[nH]c3ccccc23)NC(=O)[C@H](Cc2ccc(O)cc2)NC(=O)[C@H](CC(=O)O)NC(=O)[C@H](Cc2ccccc2)NC(=O)[C@H](Cc2c[nH]c3ccccc23)NC1=O [PP18] (HELM PEPTIDE1{[meA].D.I.W.F.D.Y.W.D.Y.D.[C1CCN([*:1])C1]}$PEPTIDE1,PEPTIDE1,1:R1-11:R3$$$V2.0) |  |  |  |  | 0.4 | < 0.06 | < 0.06 | 0.6 |
| CC(C)[C@@H]1NC(=O)[C@H](CCCCN)NC(=O)[C@H](Cc2ccc(O)cc2)NC(=O)[C@H](Cc2c[nH]c3ccccc23)NC(=O)[C@H](CO)NC(=O)[C@H]([C@@H](C)O)NC(=O)[C@H](C)N(C)C(=O)C[C@@H](C(=O)N2CCCC2)NC(=O)[C@H](CCC(N)=O)NC(=O)CNC(=O)[C@H](Cc2c[nH]c3ccccc23)NC(=O)[C@H](CC(N)=O)NC1=O [PP1] (HELM PEPTIDE1{[meA].T.S.W.Y.K.V.N.W.G.Q.D.[C1CCN([*:1])C1]}$PEPTIDE1,PEPTIDE1,1:R1-12:R3$$$V2.0) | 28.1 | > 62.1 | > 62.1 | 54.5 |  | > 62.1 | > 62.1 |  |
| CC[C@H](C)[C@@H]1NC(=O)[C@H](CC(N)=O)NC(=O)[C@H](Cc2ccc(O)cc2)NC(=O)[C@H](Cc2c[nH]c3ccccc23)NC(=O)[C@H](CO)NC(=O)[C@H](CC(N)=O)NC(=O)[C@H](CO)NC(=O)[C@H](Cc2ccccc2)NC(=O)[C@H](CC(N)=O)NC(=O)[C@H](C)N(C)C(=O)C[C@@H](C(=O)N2CCCC2)NC(=O)[C@H](Cc2c[nH]c3ccccc23)NC1=O [PP16] (HELM PEPTIDE1{[meA].N.F.S.N.S.W.Y.N.I.W.D.[C1CCN([*:1])C1]}$PEPTIDE1,PEPTIDE1,1:R1-12:R3$$$V2.0) |  |  |  |  | 20.6 | 20.2 | > 62.1 | 52.4 |
| CC[C@H](C)[C@@H]1NC(=O)[C@H](CCCCN)NC(=O)[C@H](Cc2ccc(O)cc2)NC(=O)[C@H](Cc2c[nH]c3ccccc23)NC(=O)[C@H](CO)NC(=O)[C@H](CC(N)=O)NC(=O)[C@H](C)N(C)C(=O)C[C@@H](C(=O)N2CCCC2)NC(=O)[C@H](CC(C)C)NC(=O)CNC(=O)[C@H](Cc2c[nH]c3ccccc23)NC1=O [PP21] (HELM PEPTIDE1{[meA].N.S.W.Y.K.I.W.G.L.D.[C1CCN([*:1])C1]}$PEPTIDE1,PEPTIDE1,1:R1-11:R3$$$V2.0) |  |  |  |  | 19.6 | 5.6 | 20.7 | 13.5 |
| CC[C@H](C)[C@@H]1NC(=O)[C@H](CC(N)=O)NC(=O)[C@H](Cc2ccc(O)cc2)NC(=O)[C@H](Cc2c[nH]c3ccccc23)NC(=O)[C@H](C)NC(=O)[C@H](CC(N)=O)NC(=O)[C@H](CO)NC(=O)[C@H](Cc2c[nH]cn2)NC(=O)[C@H](C)N(C)C(=O)C[C@@H](C(=O)N2CCCC2)NC(=O)[C@H](Cc2c[nH]c3ccccc23)NC1=O [PP5] (HELM PEPTIDE1{[meA].H.S.N.A.W.Y.N.I.W.D.[C1CCN([*:1])C1]}$PEPTIDE1,PEPTIDE1,1:R1-11:R3$$$V2.0) | 23.6 | 11.5 | 24 | 24.2 |  |  |  |  |
| CC[C@H](C)[C@@H]1NC(=O)[C@H](CCCCN)NC(=O)[C@H](Cc2ccccc2)NC(=O)[C@H](Cc2c[nH]c3ccccc23)NC(=O)[C@H](CO)NC(=O)[C@H](CO)NC(=O)[C@H](CC(N)=O)NC(=O)[C@@H]2CCCN2C(=O)[C@@H](C)N(C)C(=O)C[C@@H](C(=O)N2CCCC2)NC(=O)[C@H](Cc2c[nH]c3ccccc23)NC1=O [PP6] (HELM PEPTIDE1{[C[C@H](C(=O)[*:2])N(C)[*:1]].P.N.S.S.W.F.K.I.W.D.[C1CCN([*:1])C1]}$PEPTIDE1,PEPTIDE1,1:R1-11:R3$$$V2.0) | 17 | 19.2 | 42.1 | 13.1 |  |  |  |  |
